PMC12974487, “Inhibition of FicD-mediated AMPylation and deAMPylation by isoprenoid diphosphates” (Proceedings of the National Academy of Sciences of the …, 2026)

Target: T1, FicD^L258D (Homo sapiens, UniProt Q9BVA6, L258D)
T1 construct: soluble ER luminal domain (residues 105 to 458) of wild-type human FicD and three mutants; 6xHis-Sumo (N, cleaved yes); made in house; host or cells: Rosetta(DE3) E. coli
T1 sequence (Q9BVA6 105-458 L258D): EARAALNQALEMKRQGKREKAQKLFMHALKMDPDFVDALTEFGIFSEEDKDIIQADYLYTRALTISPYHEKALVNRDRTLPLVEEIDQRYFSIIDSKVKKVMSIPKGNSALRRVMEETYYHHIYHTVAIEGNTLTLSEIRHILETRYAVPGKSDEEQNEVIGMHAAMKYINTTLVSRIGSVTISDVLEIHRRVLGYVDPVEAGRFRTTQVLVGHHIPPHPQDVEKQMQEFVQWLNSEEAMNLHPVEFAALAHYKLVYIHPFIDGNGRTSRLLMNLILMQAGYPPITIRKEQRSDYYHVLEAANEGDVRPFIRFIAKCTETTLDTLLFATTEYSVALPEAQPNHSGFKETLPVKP
Test: MIDAS metabolite screen, FicD^L258D
Format: binding
Details: cutoff Q < 0.05 and |Log2 corrected fold change| > 2, metabolites 5 µM
Source text: To identify small-molecule metabolite interactions with FicD, we applied an unbiased high-throughput screening approach known as MIDAS ([44]). Given the high concentrations of protein required for MIDAS screening, we purified the soluble ER luminal domain (residues 105 to 458) of wild-type human FicD and three mutants FicD^E234G, FicD^L258D, and FicD^H363A for screening (Fig. 1A). These mutants were selected based on their well-established biochemical features ([23], [24], [31]). All three are predicted to enhance detection of protein–metabolite interactions (PMIs) relative to FicD^WT through increased affinity for nucleotide substrates (FicD^E234G), improved solubility (FicD^L258D), and loss of catalytic turnover (FicD^H363A) (Fig. 1A). To decrease the potential for nonspecific small-molecule binding, we ensured the purity of our FicD proteins (SI Appendix, Fig. S1 A and B). As reported by other investigators ([24], [31]), we observe an increase in elution volume of the FicD^L258D mutant, consistent with its monomerization (SI Appendix, Fig. S1C).
Out of the 602 naturally occurring human metabolites in the MIDAS library, we applied a significance cutoff (q value < 0.05) to identify 12 PMIs with a Log2 (corrected fold change) of >2 and two PMIs with a Log2 (corrected fold change) <-2 in the FicD^WT screen (Fig. 1B and SI Appendix, Table S2). Hits were additionally triaged based on detection of multiple adducts of the metabolite in a single dataset (FPP and […] in Fig. 1B) and identification of the same metabolites across three or more of the FicD construct screens (Fig. 1C). Three chemical classes passed this initial triage: adenosine nucleotides, isoprenoid diphosphates, and thyroid hormone intermediates (Fig. 1 B and C and SI Appendix, Tables S2–S5).
22°C. Induced cultures were then harvested by centrifugation at 8000G for 15 minutes at 4°C and […]
Bacterial pellets were resuspended in 30-50mL of 50mM Tris pH 7.4/150mM NaCl/10% glycerol with one Roche cOmplete EDTA-Free Protease inhibitor cocktail tablet (cat no. COEDTAF-RO).
Triton-X100 to a final concentration of 0.2%, Chicken-egg lysozyme to a final concentration of 0.4ug/mL, and 2-5uL of Millipore Benzonase Nuclease (cat no. 70664) were added to bacterial suspension prior to sonication at 40-50% amplitude for 1-3 minutes in pulses of 5 seconds on and 30 seconds off on ice with a Sonics VCX 750 Ultrasonicator. Bacterial lysate was then clarified by centrifugation at 30,000 x g for 30 minutes at 4°C.
Clarified lysate was rotated with Qiagen NiNTA agarose beads (cat no. 30210) for 1-2 hours at 4°C. The beads were then transferred to a 15mL conical vial, resuspended in 10-15mL wash buffer (50mM Tris pH 7.4/150mM NaCl/10% glycerol/0.2% Triton-X 100/10mM imidazole), and spun down at 1000G for 1 minute at 4°C, after which the supernatant was aspirated from the beads. This washing step was repeated 2-4 times to rinse bacterial lysate from the beads prior to on-column washing. The beads were then transferred to BioRad Econopac 20mL bed volume column (cat no.
7321010) and washed with 10-15mL of wash buffer (repeated at least three times), 10mL of ATP wash (50mM Tris pH 7.4/300mM KCl/10mM MgCl2/500uM ATP, repeated once), and finally with 10-15mL wash buffer without Triton-X 100 (repeated at least three times). Protein was eluted in 500μL-1mL elution buffer (50mM Tris pH 7.5/150mM NaCl/10% glycerol/0.5% CHAPS). […]

Row | SMILES | MIDAS protein-metabolite interaction (enrichment/depletion)
1 | CC(C)=CCC/C(C)=C/CC/C(C)=C/COP(=O)(O)OP(=O)(O)O [FPP, farnesyl-pyrophosphate] | significantly enriched
2 | CC(C)=CCC/C(C)=C/COP(=O)(O)OP(=O)(O)O [GPP, geranyl-pyrophosphate] | significantly enriched
